Publication PMC3795068, “Functional Evolution of a Multigene Family: Orthologous and Paralogous Pheromone Receptor Genes in the Turnip Moth, Agrotis segetum” (PLoS ONE, 2013)
Positions count from the first letter of the chain named.

Key:
Assay in all cases: two-electrode voltage clamp, Xenopus oocytes, inward current
Type in all cases: cell-based
AsegOR10 = molecular target: T1, AsegOR10 (Agrotis segetum, UniProt U5KJI4); details: agonist, 100 uM stimulus, 20 s, -80 mV, Ringer's pH 7.6, with Orco
T1 construct: full-length ORF, 432 aa, pCS2+ cRNA co-injected with Orco (473 aa) cRNA in Xenopus laevis oocytes; with Odorant receptor co-receptor (Orco)
T1 sequence (U5KJI4 1-432): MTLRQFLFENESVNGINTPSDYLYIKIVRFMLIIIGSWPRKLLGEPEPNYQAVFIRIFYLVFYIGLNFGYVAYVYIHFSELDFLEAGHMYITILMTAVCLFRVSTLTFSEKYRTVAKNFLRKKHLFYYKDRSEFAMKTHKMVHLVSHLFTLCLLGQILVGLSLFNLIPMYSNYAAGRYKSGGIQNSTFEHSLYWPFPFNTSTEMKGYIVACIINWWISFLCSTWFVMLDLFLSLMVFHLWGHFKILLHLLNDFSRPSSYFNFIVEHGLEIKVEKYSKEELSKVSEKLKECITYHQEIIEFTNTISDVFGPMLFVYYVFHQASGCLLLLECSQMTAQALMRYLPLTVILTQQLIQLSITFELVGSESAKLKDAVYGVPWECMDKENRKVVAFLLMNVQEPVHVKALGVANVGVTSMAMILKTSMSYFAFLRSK
T1 sequence (U5KJY5 1-473 partner): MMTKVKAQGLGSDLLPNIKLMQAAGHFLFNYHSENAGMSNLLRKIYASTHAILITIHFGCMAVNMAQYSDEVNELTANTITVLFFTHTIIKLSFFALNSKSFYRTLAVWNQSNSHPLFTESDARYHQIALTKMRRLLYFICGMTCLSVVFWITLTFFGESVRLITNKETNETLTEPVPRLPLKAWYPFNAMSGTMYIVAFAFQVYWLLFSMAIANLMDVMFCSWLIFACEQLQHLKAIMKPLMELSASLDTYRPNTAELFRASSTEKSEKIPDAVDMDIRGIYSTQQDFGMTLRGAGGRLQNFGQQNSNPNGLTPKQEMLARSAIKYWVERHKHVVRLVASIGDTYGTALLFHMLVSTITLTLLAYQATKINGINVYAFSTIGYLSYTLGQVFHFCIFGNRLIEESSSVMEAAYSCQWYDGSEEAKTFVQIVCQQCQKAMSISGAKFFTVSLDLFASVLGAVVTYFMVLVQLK

AsegOR9 = molecular target: T2, AsegOR9 (Agrotis segetum, UniProt U5KJQ9); details: agonist; 100 uM stimulus, 20 s, -80 mV, Ringer's pH 7.6, with Orco; dose response curve
T2 construct: full-length ORF, 433 aa, pCS2+ cRNA co-injected with Orco (473 aa) cRNA in Xenopus laevis oocytes; with Odorant receptor co-receptor (Orco)
T2 sequence (U5KJQ9 1-433): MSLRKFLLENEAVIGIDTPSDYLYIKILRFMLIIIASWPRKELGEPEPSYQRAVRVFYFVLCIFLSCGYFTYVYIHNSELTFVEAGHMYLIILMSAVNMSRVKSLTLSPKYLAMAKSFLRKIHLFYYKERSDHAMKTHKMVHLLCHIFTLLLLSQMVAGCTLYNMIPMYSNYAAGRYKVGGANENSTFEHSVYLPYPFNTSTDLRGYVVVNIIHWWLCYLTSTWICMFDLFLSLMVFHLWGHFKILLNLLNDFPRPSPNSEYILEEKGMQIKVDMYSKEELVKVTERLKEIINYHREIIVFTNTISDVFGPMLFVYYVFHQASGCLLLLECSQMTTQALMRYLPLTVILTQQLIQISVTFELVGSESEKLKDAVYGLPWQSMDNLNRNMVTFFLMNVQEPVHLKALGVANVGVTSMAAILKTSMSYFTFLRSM
T2 sequence (U5KJY5 1-473 partner): T1 sequence (U5KJY5 1-473 partner)

AsegOR1 = molecular target: T3, AsegOR1 (Agrotis segetum, UniProt U5KK32); details: agonist; 100 uM stimulus, 20 s, -80 mV, Ringer's pH 7.6, with Orco; dose response curve
T3 construct: full-length ORF, 432 aa, pCS2+ cRNA co-injected with Orco (473 aa) cRNA in Xenopus laevis oocytes; with Odorant receptor co-receptor (Orco)
T3 sequence (U5KK32 1-432): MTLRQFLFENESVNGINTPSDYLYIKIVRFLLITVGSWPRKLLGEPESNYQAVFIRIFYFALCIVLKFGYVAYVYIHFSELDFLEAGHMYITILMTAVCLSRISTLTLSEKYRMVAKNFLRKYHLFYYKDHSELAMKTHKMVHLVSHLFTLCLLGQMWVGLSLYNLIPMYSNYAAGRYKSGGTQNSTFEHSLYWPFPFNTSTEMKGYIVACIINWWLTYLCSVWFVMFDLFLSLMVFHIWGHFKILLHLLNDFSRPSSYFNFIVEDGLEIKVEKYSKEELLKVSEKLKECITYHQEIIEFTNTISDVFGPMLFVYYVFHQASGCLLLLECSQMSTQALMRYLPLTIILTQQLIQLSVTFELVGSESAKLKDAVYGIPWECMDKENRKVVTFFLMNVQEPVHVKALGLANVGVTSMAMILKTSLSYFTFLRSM
T3 sequence (U5KJY5 1-473 partner): T1 sequence (U5KJY5 1-473 partner)

AsegOR8 = molecular target: T4, AsegOR8 (Agrotis segetum, UniProt U5KJT2); details: agonist; 100 uM stimulus, 20 s, -80 mV, Ringer's pH 7.6, with Orco; dose response curve
T4 construct: with Odorant receptor co-receptor (Orco)
T4 sequence (U5KJT2 1-430): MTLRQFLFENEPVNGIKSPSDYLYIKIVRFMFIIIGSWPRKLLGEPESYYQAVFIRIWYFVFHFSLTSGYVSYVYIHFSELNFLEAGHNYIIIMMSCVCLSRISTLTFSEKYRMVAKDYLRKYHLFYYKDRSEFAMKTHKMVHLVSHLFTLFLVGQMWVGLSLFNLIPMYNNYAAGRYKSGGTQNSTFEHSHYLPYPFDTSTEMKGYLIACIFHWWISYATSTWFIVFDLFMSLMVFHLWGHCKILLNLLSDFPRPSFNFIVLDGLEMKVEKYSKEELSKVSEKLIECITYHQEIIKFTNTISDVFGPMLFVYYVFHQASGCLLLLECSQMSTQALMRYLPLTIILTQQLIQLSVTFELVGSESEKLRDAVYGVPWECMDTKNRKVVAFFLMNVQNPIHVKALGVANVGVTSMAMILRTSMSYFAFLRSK
T4 sequence (U5KJY5 1-473 partner): T1 sequence (U5KJY5 1-473 partner)

AsegOR6 = molecular target: T5, AsegOR6 (Agrotis segetum, UniProt U5KJY6); details: agonist; 100 uM stimulus, 20 s, -80 mV, Ringer's pH 7.6, with Orco; dose response curve
T5 construct: full-length ORF, 430 aa, pCS2+ cRNA co-injected with Orco (473 aa) cRNA in Xenopus laevis oocytes; with Odorant receptor co-receptor (Orco)
T5 sequence (U5KJY6 1-430): T4 sequence (U5KJT2 1-430) with S48P, Q51K, V53I, F60L, S279L, R368K, A425T
T5 sequence (U5KJY5 1-473 partner): T1 sequence (U5KJY5 1-473 partner)

AsegOR4 = molecular target: T6, AsegOR4 (Agrotis segetum, UniProt U5KJQ7); details: agonist; 100 uM stimulus, 20 s, -80 mV, Ringer's pH 7.6, with Orco; dose response curve
T6 construct: full-length ORF, 424 aa, pCS2+ cRNA co-injected with Orco (473 aa) cRNA in Xenopus laevis oocytes; with Odorant receptor co-receptor (Orco)
T6 sequence (U5KJQ7 1-424): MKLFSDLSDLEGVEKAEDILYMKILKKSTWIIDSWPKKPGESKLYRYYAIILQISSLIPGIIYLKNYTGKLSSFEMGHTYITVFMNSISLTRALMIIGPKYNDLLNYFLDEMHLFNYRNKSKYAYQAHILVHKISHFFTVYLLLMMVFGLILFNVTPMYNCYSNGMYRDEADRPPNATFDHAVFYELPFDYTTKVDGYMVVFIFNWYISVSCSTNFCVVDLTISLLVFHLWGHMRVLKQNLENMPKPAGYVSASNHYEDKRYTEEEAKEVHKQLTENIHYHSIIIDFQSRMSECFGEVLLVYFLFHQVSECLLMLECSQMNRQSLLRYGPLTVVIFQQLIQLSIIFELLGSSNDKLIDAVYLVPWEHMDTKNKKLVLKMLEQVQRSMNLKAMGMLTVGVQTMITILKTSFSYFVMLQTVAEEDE
T6 sequence (U5KJY5 1-473 partner): T1 sequence (U5KJY5 1-473 partner)

AsegOR5 = molecular target: T7, AsegOR5 (Agrotis segetum, UniProt U5KJI3); details: agonist, 100 uM stimulus, 20 s, -80 mV, Ringer's pH 7.6, with Orco
T7 construct: full-length ORF, 443 aa, pCS2+ cRNA co-injected with Orco (473 aa) cRNA in Xenopus laevis oocytes; with Odorant receptor co-receptor (Orco)
T7 sequence (U5KJI3 1-443): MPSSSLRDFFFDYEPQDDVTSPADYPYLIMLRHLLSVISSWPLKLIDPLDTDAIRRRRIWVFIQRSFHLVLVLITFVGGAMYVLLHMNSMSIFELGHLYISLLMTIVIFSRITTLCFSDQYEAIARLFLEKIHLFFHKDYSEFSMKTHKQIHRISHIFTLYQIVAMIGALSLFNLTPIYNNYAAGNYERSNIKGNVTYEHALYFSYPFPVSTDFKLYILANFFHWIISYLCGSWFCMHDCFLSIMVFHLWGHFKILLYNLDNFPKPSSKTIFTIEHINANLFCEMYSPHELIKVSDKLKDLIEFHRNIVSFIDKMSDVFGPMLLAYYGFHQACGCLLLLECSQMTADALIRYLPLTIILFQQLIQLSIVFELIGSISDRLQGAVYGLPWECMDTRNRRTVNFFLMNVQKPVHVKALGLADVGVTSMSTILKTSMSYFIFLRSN
T7 sequence (U5KJY5 1-473 partner): T1 sequence (U5KJY5 1-473 partner)

AsegOR3 = molecular target: T8, AsegOR3 (Agrotis segetum, UniProt U5KJT1); details: agonist; 100 uM stimulus, 20 s, -80 mV, Ringer's pH 7.6, with Orco
T8 construct: full-length ORF, 435 aa, pCS2+ cRNA co-injected with Orco (473 aa) cRNA in Xenopus laevis oocytes; with Odorant receptor co-receptor (Orco)
T8 sequence (U5KJT1 1-435): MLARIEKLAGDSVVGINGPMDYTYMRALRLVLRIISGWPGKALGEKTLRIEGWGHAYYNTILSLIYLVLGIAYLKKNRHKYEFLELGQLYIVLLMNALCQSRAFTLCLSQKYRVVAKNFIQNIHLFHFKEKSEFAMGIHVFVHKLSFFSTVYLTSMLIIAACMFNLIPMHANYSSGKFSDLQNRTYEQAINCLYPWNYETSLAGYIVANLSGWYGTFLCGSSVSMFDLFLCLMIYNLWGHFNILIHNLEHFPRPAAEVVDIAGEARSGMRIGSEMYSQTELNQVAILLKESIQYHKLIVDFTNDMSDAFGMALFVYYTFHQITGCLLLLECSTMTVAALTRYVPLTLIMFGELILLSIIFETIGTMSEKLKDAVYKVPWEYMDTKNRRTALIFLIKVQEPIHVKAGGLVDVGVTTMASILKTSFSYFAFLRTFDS
T8 sequence (U5KJY5 1-473 partner): T1 sequence (U5KJY5 1-473 partner)

AsegOR7 = molecular target: T9, AsegOR7 (Agrotis segetum, UniProt U5KK33); details: agonist; 100 uM stimulus, 20 s, -80 mV, Ringer's pH 7.6, with Orco
T9 construct: with Odorant receptor co-receptor (Orco)
T9 sequence (U5KK33 1-432): T3 sequence (U5KK32 1-432) with L31M, I33V, S101F, I103V, M114T, H131R, L134Y, I376V, K383T, E384K
T9 sequence (U5KJY5 1-473 partner): T1 sequence (U5KJY5 1-473 partner)

CCCC/C=C\CCCCOC(C)=O [Z5-10:OAc]
two-electrode voltage clamp, Xenopus oocytes, inward current (AsegOR10; dose response curve): AsegOR10 responded to Z9-14:OAc and Z5-10:OAc but with low sensitivity | two-electrode voltage clamp, Xenopus oocytes, inward current (AsegOR9): co-expressing AsegOR9 (Cluster I) and Aseg\Orco robustly and specifically responded to Z5-10:OAc | two-electrode voltage clamp, Xenopus oocytes, inward current (AsegOR1): Oocytes co-expressing AsegOR1 and Aseg\Orco also responded to Z5-10:OAc | two-electrode voltage clamp, Xenopus oocytes, inward current (AsegOR8): Different sensitivities of the six paralogues to the main pheromone component Z5-10:OAc

CCCC/C=C\CCCCO [Z5-10:OH]
two-electrode voltage clamp, Xenopus oocytes, inward current (AsegOR6): oocytes that showed the strongest response to another antagonist Z5-10:OH | two-electrode voltage clamp, Xenopus oocytes, inward current (AsegOR8): Two of them (AsegOR6 and AsegOR8) showed strong responses to Z5-10:OH (Figure 5B)

CCCC/C=C\CCCCCCOC(C)=O [Z7-12:OAc]
two-electrode voltage clamp, Xenopus oocytes, inward current (AsegOR4): AsegOR4 (Cluster IV) was specifically responsive to the pheromone component Z7-12:OAc | two-electrode voltage clamp, Xenopus oocytes, inward current (AsegOR5): a much smaller response to Z7-12:OAc and marginal responses to other tested compounds | two-electrode voltage clamp, Xenopus oocytes, inward current (AsegOR3): albeit with Z7-12:OAc standing out as the most active one | two-electrode voltage clamp, Xenopus oocytes, inward current (AsegOR7): receptors for Z8-12:OAc and Z7-12:OAc (AsegOR1 and AsegOR7)

CCC/C=C\CCCCCCCOC(C)=O [Z8-12:OAc]
two-electrode voltage clamp, Xenopus oocytes, inward current (AsegOR7): receptors for Z8-12:OAc and Z7-12:OAc (AsegOR1 and AsegOR7)

CCCC/C=C\CCCCCCCCOC(C)=O [Z9-14:OAc]
two-electrode voltage clamp, Xenopus oocytes, inward current (AsegOR5; dose response curve): AsegOR5 (Cluster II) showed the largest response to Z9-14:OAc | two-electrode voltage clamp, Xenopus oocytes, inward current (AsegOR10): AsegOR10 responded to Z9-14:OAc and Z5-10:OAc but with low sensitivity
